# Read-outs that look alike come from different tables or passages of the source.
# Legend:
# [1] = format: in vivo; conditions: i.p. twice per day for 1 week
# Protocol: To test the sub-acute toxicity of the compounds of Formula I, female mice were injected with the compounds and toxicity was evaluated based on mortality, changes in behaviour, appearance and weight. Briefly, ICR normal female mice (5-6 weeks old; n=33) weighing about 0.020 kg in body weight, were injected with various compounds at 100 mg/kg and 50 mg/kg or with the vehicle alone (Lutrol (M68, micronized)). Groups of 3 ICR female mice were injected with one intra-peritoneal (i.p.) injection of 250 μl of each compound at 4.0 mg/ml twice per day (100 mg/kg) for 1 week (Group I); or with one intra-peritoneal (i.p.) injection of 250 μl of each compound at 2.0 mg/ml twice per day (50 mg/kg) for 1 week (Group II), or with one intra-peritoneal (i.p.) injection of 250 μl of lutrol vehicle control twice per day for 1 week (Control Group).
# The compounds to be tested were prepared to provide enough for one week at concentrations of 4.0 mg/ml and 2.0 mg/ml. Briefly, 50 mg of each compound was dissolved in 1.25 ml of 100% DMSO and diluted with 6.25 ml of Lutrol (30% in water) and 5 ml water, to prepare a solution of 4 mg/ml compound in 15% Lutrol in water. Next, 4 ml of each prepared solution was further diluted with 4 ml of 15% Lutrol in water to provide the 2.0 mg/ml solution of each compound. For the vehicle control solution, 8 ml of 15% Lutrol in water was prepared. Compounds at concentrations of 4.0 mg/ml and 2.0 mg/ml and the vehicle control were administered as described above.
# [2] = tested on: human colon carcinoma HT-29 cells; test: XTT cell proliferation assay, HT-29; format: cell-based; conditions: Homo sapiens, HT-29, XTT, read-out: IC50
# Protocol: The ability of compounds of Formula I to inhibit the proliferation of human colon carcinoma HT-29 cells was tested as follows. HT-29 colon carcinoma cells used in this example and subsequent examples were maintained as a monolayer in a growth medium; McCoy's 5A modified medium (Sigma, St. Louis, Mo.), supplemented with 2 mM L-glutamine (Gibco, Grand Island, N.Y.), 10% fetal bovine serum (FBS) (Multicell, WISENT Inc. St-Bruno, QC), antibiotic-antimycotic (Multicell), at 37° C. in a 5% CO2-humidified incubator. Cells were transferred onto 150 mm tissue culture plates and grown until sub-confluency (70-80%) prior to their use. The in vitro antiproliferative activity of compounds was evaluated by incubating the cells with varying concentrations of the compounds as shown in Table 1 for 6-7 days. The efficacy of these compounds in this cell proliferation assay was measured based in the ability of live cells to reduce the tetrazolium salt XTT to orange colored compounds of formazan (XTT cell proliferation kit II, Roche Applied Science, Montreal, QC).
# The ability of compounds of Formula I to inhibit the proliferation of human colon carcinoma HT-29 cells was tested as described above in Example 13.
# Cell growth inhibition IC50 (μM) by compounds of Formula I was tested on various cancer cell types by XTT cell proliferation assay. The growth inhibitory effects of the compounds of Formula I as shown below for the melanoma cell line SK-MEL-2 were reproducible by Lorus Therapeutics Inc.
# supercoiled plasmid DNA = test: In vitro DNA cleavage assay; format: biochemical; conditions: 25 μM compound, 10 μM CuSO4, 100 μM ascorbic acid, 37° C., 30 minutes
# Protocol: Compound 3 was tested for its ability to cleave plasmid DNA in vitro in the presence of copper and the reducing agent ascorbic acid. Experiments were performed in a total of 20 μl, containing 10 mM NaH2PO4/Na2HPO4 buffer (pH 6.7), 1 μg of supercoiled plasmid DNA, 100 μM ascorbic acid, 25 μM drug compound (or vehicle), and 10 μM of CuSO4.5H20. The reaction mixture was incubated at 37° C. for 30 minutes, and 1 μl of 0.1 M EDTA was added to terminate the reaction. DNA loading buffer was added, and reactions were run at 80V for 80 minutes on a 1% agarose gel containing ethidium bromide.
# To determine whether ions other than copper could suffice, DNA cleavage reactions were also carried out in the presence of zinc or iron. Reactions were performed as above, in the presence of 25 μM of CuSO4.5H20, ZnCl2, or FeCl2.4H20. […] Note that copper alone in the presence of ascorbic acid can shift the ratio of supercoiled DNA to open circular DNA.
# To determine the ratios of compound to copper at which compound 3 was effective, reactions were performed as in FIG. 22A. The ratios of compound 3 to copper of 3:1, 2.5:1, 2:1, 1.5:1, and 1:1, as shown in FIG. 23 were achieved by maintaining the concentration of Cu constant at 10 μM, and varying the concentration of compound 3. The ratios of compound 3 to Cu of 1:1.5, 1:2, 1:2.5, and 1:3, were achieved by maintaining the concentration of compound 3 constant at 10 μM, and varying the concentration of copper.
# Other compounds of Formula I, compounds 5, 7, 9 and 13 were also tested for their ability to cleave DNA at a ratio of 2.5:1 to copper (FIG. 23). Ratios of compound 3:copper as indicated, plus concentrations of copper in the absence of compound 3 were used in the DNA cleavage assay as described above.
# [3] = tested on: normal cell lines PrEC, HMEC, WI38 and cancer cell lines DU145, MDA-MB-435, HT-29; test: Cancer cell selectivity, IC90 in normal versus cancer cell lines (XTT); format: cell-based, human; conditions: average IC90 of all normal / average IC90 of all cancer cell lines, 6 to 7 days
# Excerpt: An exemplary method of assessing the differential sensitivity between normal and cancer cells for a compound has been described by Vassilev et al. (Anti-Cancer Drug Design (2001) 16:7). This method involves the comparison of IC90 values, i.e. the molar concentration of a test compound required to cause 90% growth inhibition of exponentially growing cells. Thus, the IC90 values for candidate compounds can be evaluated in various cancer cell lines (such as those outlined above) and normal cells (such as HUVEC and/or WI38 cells) and compared. IC90 values can be measured using a variety of standard techniques as known in the art. Cancer cell selectivity is calculated as a ratio between the average IC90 for all normal cell lines and the average IC90 for all cancer cell lines. Compounds with an IC90 ratio (normal/cancer) of >4 are considered to be selective for cancer cells (L. T. Vassilev et al., Anti-cancer Drug Design, 2001, 16: 7-17).
# The normal cells lines used were PrEC (prostate), HMEC (breast), and WI38 (lung fibroblast) cell lines and the cancer cells lines were DU145 (prostate), MDA-MB-435 (breast), HT-29 (colon). IC90 values were also determined for the controls doxorubicin and etoposide. The cells were cultured as generally described in Example 13. Various concentrations of the compounds were incubated with the cells for 6 to 7 days, and the number of proliferating cells was measured using the XTT assay. Cancer cell selectivity was calculated as a ratio between the average IC90 for all normal and the average IC90 for all cancer cell lines.
smiles,measurement,setting,value
c1ccc(-c2[nH]c3ccccc3c2-c2nc3c4cccnc4c4ncccc4c3[nH]2)cc1 [Compound 9],Sub-acute toxicity,[1]; 50 mg/Kg,−
same,Sub-acute toxicity,[1]; 100 mg/Kg,+
same,IC50,"[2]; 6-7 days, Table 3",300 nM
same,IC50,"[2]; as Example 13, Table 7",0.3 µg/mL
same,cleavage of plasmid DNA,supercoiled plasmid DNA,capable of cleaving DNA
same,Normal/cancer IC90 ratio,[3],>5.6

# — patent US8148392B2, “2-indolyl imidazo [4,5-d] phenanthroline derivatives and their use in the treatment of cancer” (Lorus Therapeutics Inc., priority 2005, dated 2012)
